The record followed here is US10654833B2, “ASK1 isoindolin-1-one inhibitors and methods of use thereof” (Hepatikos Therapeutics, LLC, priority 2018, dated 2020).

Structures are written as SMILES.

As a reminder, the IC50 is the point on the concentration scale where inhibition reaches its midpoint.

recombinant human ASK1 protein, sequence (Q99683 whole entry): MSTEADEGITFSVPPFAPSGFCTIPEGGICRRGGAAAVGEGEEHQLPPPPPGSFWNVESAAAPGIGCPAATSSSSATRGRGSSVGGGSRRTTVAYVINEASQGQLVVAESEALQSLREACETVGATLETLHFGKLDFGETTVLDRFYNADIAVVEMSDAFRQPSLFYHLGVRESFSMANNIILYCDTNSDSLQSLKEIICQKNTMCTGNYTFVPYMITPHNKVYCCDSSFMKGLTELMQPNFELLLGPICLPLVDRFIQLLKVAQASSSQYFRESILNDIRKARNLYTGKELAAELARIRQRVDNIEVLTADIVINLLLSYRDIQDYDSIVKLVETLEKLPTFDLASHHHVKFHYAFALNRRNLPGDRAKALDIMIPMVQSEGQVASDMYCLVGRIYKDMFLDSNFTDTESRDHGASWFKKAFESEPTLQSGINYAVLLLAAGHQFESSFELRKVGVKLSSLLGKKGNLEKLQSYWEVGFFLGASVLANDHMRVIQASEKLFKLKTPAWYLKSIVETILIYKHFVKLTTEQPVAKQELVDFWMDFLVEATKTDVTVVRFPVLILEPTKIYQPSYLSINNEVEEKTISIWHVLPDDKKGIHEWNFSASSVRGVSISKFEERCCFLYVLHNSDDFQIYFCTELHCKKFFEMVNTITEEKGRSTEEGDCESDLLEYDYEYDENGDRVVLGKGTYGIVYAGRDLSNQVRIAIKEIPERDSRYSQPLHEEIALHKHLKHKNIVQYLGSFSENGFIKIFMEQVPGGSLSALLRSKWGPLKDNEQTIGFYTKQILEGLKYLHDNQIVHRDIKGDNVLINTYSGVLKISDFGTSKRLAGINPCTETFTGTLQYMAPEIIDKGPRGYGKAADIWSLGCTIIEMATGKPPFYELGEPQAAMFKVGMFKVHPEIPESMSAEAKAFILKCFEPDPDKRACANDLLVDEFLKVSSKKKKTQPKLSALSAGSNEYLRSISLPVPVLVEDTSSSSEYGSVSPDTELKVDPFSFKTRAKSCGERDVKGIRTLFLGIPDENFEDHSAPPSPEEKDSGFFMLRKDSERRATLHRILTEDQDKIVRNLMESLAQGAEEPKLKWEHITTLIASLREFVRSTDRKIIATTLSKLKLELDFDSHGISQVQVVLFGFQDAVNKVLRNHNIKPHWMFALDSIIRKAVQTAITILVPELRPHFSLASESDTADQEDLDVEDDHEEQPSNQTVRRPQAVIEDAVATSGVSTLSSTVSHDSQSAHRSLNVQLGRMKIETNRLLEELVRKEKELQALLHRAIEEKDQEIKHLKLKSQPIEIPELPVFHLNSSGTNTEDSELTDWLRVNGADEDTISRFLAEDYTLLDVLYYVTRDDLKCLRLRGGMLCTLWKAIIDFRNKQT

In the test the target is recombinant human ASK1 protein (Homo sapiens (Human), UniProt Q99683). The experiment in a line: ASK1 kinase activity inhibition assay (radiometric 33P incorporation into MBP). The test is classed as biochemical. The following applies: Table 3; 20 μM MBP, 10 μM 33P-ATP. On the procedure:
ASK1 Kinase Activity Inhibition Assay
Inhibition of ASK1 kinase activity was determined radiometrically using 33P substrate incorporation (Reaction Biology Corp., Malvern, Pa.). Briefly, recombinant human ASK1 protein, 20 μM substrate (myelin basic protein (MBP)), and compound (diluted from DMSO stock to give 1% final DMSO) were incubated in Base Reaction buffer (20 mM Hepes (pH 7.5), 10 mM MgCl2, 1 mM EGTA, 0.02% Brij35, 0.02 mg/mL BSA, 0.1 mM Na3VO4, 2 mM DTT, 1% DMSO) at room temperature for 20 minutes. The reaction was initiated by addition of 10 μM 33P-ATP (specific activity […]). The reaction was then allowed to proceed for 2 hours at room temperature. Upon reaction termination, the mixture was spotted on P81 exchange paper and kinase activity by incorporation of 33P into MBP substrate was detected by filter-binding method.
Regarding `Cc1ccc(-c2ccc3c(c2)C(=O)N(c2cccc(-c4nncn4C(C)C)n2)C3)cc1C(=O)O` [Compound 9, 5-(2-(6-(4-Isopropyl-4H-1,2,4-triazol-3-yl)pyridin-2-yl)-3-oxoisoindolin-5-yl)-2-methylbenzoic acid], the IC50 stood at 5.6 nM.
`CC(C)n1cnnc1-c1cccc(N2Cc3ccc(-c4cccc(OCC(=O)O)c4)cc3C2=O)n1` [Compound 108, 2-(3-(2-(6-(4-Isopropyl-4H-1,2,4-triazol-3-yl)pyridin-2-yl)-3-oxoisoindolin-5-yl)phenoxy) Acetic Acid]: the IC50 came out at 5.2 nM.
Under `CC(C)n1cnnc1-c1cccc(N2Cc3ccc(-c4ccc(-n5ncc(C(=O)O)c5N)cc4)cc3C2=O)n1` [Compound 120, 5-Amino-1-(4-(2-(6-(4-isopropyl-4H-1,2,4-triazol-3-yl)pyridin-2-yl)-3-oxoisoindolin-5-yl)phenyl)-1H-pyrazole-4-carboxylic Acid] stands 8.2 nM.
Regarding `COC(=O)c1cccc(-c2ccc3c(c2)C(=O)N(c2cccc(-c4nncn4C(C)C)n2)C3)c1` [Compound 99, Methyl 3-(2-(6-(4-isopropyl-4H-1,2,4-triazol-3-yl)pyridin-2-yl)-3-oxoisoindolin-5-yl)benzoate], the IC50 turned out to be 6.37 nM.
`CC(C)n1cnnc1-c1cccc(N2Cc3ccc(-c4nccc(C(=O)O)c4F)cc3C2=O)n1` [Compound 113, 3-Fluoro-2-(2-(6-(4-isopropyl-4H-1,2,4-triazol-3-yl) 103yridine-2-yl)-3-oxoisoindolin-5-yl) Isonicotinic Acid]: the concentration for half-maximal inhibition (IC50) turned out to be 1.6 nM.
For the molecule `Cc1cc(F)c(C(=O)O)cc1-c1ccc2c(c1)C(=O)N(c1cccc(-c3nncn3C(C)C)n1)C2` [Compound 79, 2-Fluoro-5-(2-(6-(4-isopropyl-4H-1,2,4-triazol-3-yl)pyridin-2-yl)-3-oxoisoindolin-5-yl)-4-methylbenzoic Acid], the IC50 turned out to be 4.6 nM.
Regarding `CC(C)n1cnnc1-c1cccc(N2Cc3ccc(-c4cccc(C5(C(=O)O)CC5)c4)cc3C2=O)n1` [Compound 105, 1-(3-(2-(6-(4-Isopropyl-4H-1,2,4-triazol-3-yl)pyridin-2-yl)-3-oxoisoindolin-5-yl)phenyl)cyclopropane-1-carboxylic Acid], the IC50 came out at 7.3 nM.
As to `COc1cc(-c2ccc3c(c2)C(=O)N(c2cccc(-c4nncn4C(C)C)n2)C3)ccc1C(=O)O` [Compound 75, 4-(2-(6-(4-Isopropyl-4H-1,2,4-triazol-3-yl)pyridin-2-yl)-3-oxoisoindolin-5-yl)-2-methoxybenzoic Acid], the IC50 was 5.6 nM.
Turning to `Cc1cc(-c2ccc3c(c2)C(=O)N(c2cccc(-c4nncn4C(C)C)n2)C3)ccc1C(=O)O` [Compound 73, 4-(2-(6-(4-isopropyl-4H-1,2,4-triazol-3-yl)pyridin-2-yl)-3-oxoisoindolin-5-yl)-2-methyl], the 50% inhibitory concentration (IC50) is 14.3 nM.
For `CC(C)n1cnnc1-c1cccc(N2Cc3ccc([C@H]4CC[C@H](C(=O)O)CC4)cc3C2=O)n1` [Compound 126, trans-4-(2-(6-(4-Isopropyl-4H-1,2,4-triazol-3-yl)pyridin-2-yl)-3-oxoisoindolin-5-yl)cyclohexane-1-carboxylic acid], the IC50 was found to be 13.4 nM.
For `CC(C)(C(=O)O)c1cccc(-c2ccc3c(c2)C(=O)N(c2cccc(-c4nncn4C4CC4)n2)C3)c1` [Compound 103, 2-(3-(2-(6-(4-Cyclopropyl-4H-1,2,4-triazol-3-yl)pyridin-2-yl)-3-oxoisoindolin-5-yl)phenyl)-2-methylpropanoic Acid], the IC50 stood at 12.5 nM.
On to `CC(C)n1cnnc1-c1cccc(N2Cc3ccc(-c4cccc(C(=O)O)c4O)cc3C2=O)n1` [Compound 95, 2-Hydroxy-3-(2-(6-(4-isopropyl-4H-1,2,4-triazol-3-yl)pyridin-2-yl)-3-oxoisoindolin-5-yl) benzoic Acid], for which the IC50 came to 3.4 nM.
In the case of `CC(C)n1cnnc1-c1cccc(N2Cc3ccc(-c4cncc(C(=O)O)c4)cc3C2=O)n1` [Compound 63, 5-(2-(6-(4-Isopropyl-4H-1,2,4-triazol-3-yl)pyridin-2-yl)-3-oxoisoindolin-5-yl)nicotinic Acid], the IC50 was determined as 5.1 nM.
`CC(C)n1cnnc1-c1cccc(N2Cc3ccc(-c4cc(F)c(C(=O)O)c(F)c4)cc3C2=O)n1` [Compound 78, 2,6-Difluoro-4-(2-(6-(4-isopropyl-4H-1,2,4-triazol-3-yl)pyridin-2-yl)-3-oxoisoindolin-5-yl) Benzoic Acid]: the IC50 was found to be 4.6 nM.
Under `O=C1c2cc(-c3cccc(-c4nn[nH]n4)c3)ccc2CN1c1cccc(-c2nncn2C2CC2)n1` [Compound 110, 6-(3-(2H-Tetrazol-5-yl)phenyl)-2-(6-(4-cyclopropyl-4H-1,2,4-triazol-3-yl)pyridin-2-yl)isoindolin-1-one] stands 5.44 nM; under `CC(C)n1cnnc1-c1cccc(N2Cc3ccc(-c4ccc(C(=O)O)cc4F)cc3C2=O)n1` [Compound 57, 3-Fluoro-4-(2-(6-(4-isopropyl-4H-1,2,4-triazol-3-yl)pyridin-2-yl)-3-oxoisoindolin-5-yl)benzoic Acid], 5.8 nM.
With `COc1ccc(-c2ccc3c(c2)C(=O)N(c2cccc(-c4nncn4C(C)C)n2)C3)cc1C(=O)O` [Compound 96, 5-(2-(6-(4-Isopropyl-4H-1,2,4-triazol-3-yl)pyridin-2-yl)-3-oxoisoindolin-5-yl)-2-methoxybenzoic Acid], the 50% inhibitory concentration (IC50) came to 4.9 nM.
The value for `CC(C)n1cnnc1-c1cccc(N2Cc3ccc(-c4ccc(F)c(C(=O)O)c4)cc3C2=O)n1` [Compound 3, 2-Fluoro-5-(2-(6-(4-isopropyl-4H-1,2,4-triazol-3-yl)pyridin-2-yl)-3-oxoisoindolin-5-yl)benzoic Acid] was 4.9 nM; that for `O=C(O)c1ccc(-c2ccc3c(c2)C(=O)N(c2cccc(-c4nncn4C4CC4)n2)C3)cc1` [Compound 71, 4-(2-(6-(4-Cyclopropyl-4H-1,2,4-triazol-3-yl)pyridin-2-yl)-3-oxoisoindolin-5-yl)benzoic Acid] was 4.3 nM; that for `CC(C)n1cnnc1-c1cccc(N2Cc3ccc(N4CCC(C(=O)O)CC4)cc3C2=O)n1` [Compound 128, 1-(2-(6-(4-isopropyl-4H-1,2,4-triazol-3-yl)pyridin-2-yl)-3-oxoisoindolin-5-yl)piperidine-4-carboxylic acid] was 6.16 nM.
Under `CC(C)n1cnnc1-c1cccc(N2Cc3ccc(-c4ccc(C(=O)O)cc4)cc3C2=O)n1` [Compound 55, 4-(2-(6-(4-Isopropyl-4H-1,2,4-triazol-3-yl)pyridin-2-yl)-3-oxoisoindolin-5-yl)benzoic Acid] stands 5.4 nM.
Regarding `CC(C)n1cnnc1-c1cccc(N2Cc3ccc(-c4ccc(C(=O)O)cc4CO)cc3C2=O)n1` [Compound 58, 3-(Hydroxymethyl)-4-(2-(6-(4-isopropyl-4H-1,2,4-triazol-3-yl)pyridin-2-yl)-3-oxoisoindolin-5-yl)benzoic Acid], the IC50 worked out at 5.1 nM.
As to `CC(C)n1cnnc1-c1cccc(N2Cc3ccc(-c4ccc5cc(C(=O)O)[nH]c5c4)cc3C2=O)n1` [Compound 61, 6-(2-(6-(4-Isopropyl-4H-1,2,4-triazol-3-yl)pyridin-2-yl)-3-oxoisoindolin-5-yl)-1H-indole-2-carboxylic Acid], the IC50 is 5.1 nM.
With `COc1ncc(-c2ccc3c(c2)C(=O)N(c2cccc(-c4nncn4C(C)C)n2)C3)cc1C(=O)O` [Compound 116, 5-(2-(6-(4-Isopropyl-4H-1,2,4-triazol-3-yl)pyridine-2-yl)-3-oxoisoindolin-5-yl)-2-methoxynicotinic Acid], the half-maximal inhibitory concentration (IC50) is 4.6 nM.
